Assay results from patent publication US20110038804A1, “MR IMAGING AGENT, IMAGING MEDIUM AND METHODS OF IMAGING WHEREIN SUCH AN IMAGING MEDIUM IS USED” (priority 2007, published 2011).

Experiments:
[1] = system: subcutaneous mouse lymphoma (EL-4); assay type: in vivo
Experimental: EL-4 cells were injected into a C57Bl/6 mouse to generate a subcutaneous mouse lymphoma. 175 μl of an imaging medium comprising hyperpolarised sodium ^13C1-α-ketoisocaproate which was prepared as described in Example 2 was injected into the mouse over a time period of 6 s. The sodium ^13Ci-α-ketoisocaproate concentration in said imaging medium was about 50 mM. A 20 mm surface coil (tuned for carbon) was positioned over the subcutaneous tumour and signals of ^13C-α-ketoisocaproate and ^13C-leucine were detected by ^13C-MR spectroscopy which was carried out using a 2.4 T Bruker spectrometer to generate a metabolic profile of the tumour and the surrounding healthy tissue. A ^13C-chemical shift image was acquired with the following parameters: FOV 35×35 mm^2×10 mm, matrix size 16×16, 10 degree RF pulse, TR=35 ms. Total acquisition time was 11 seconds (die to triggering on breathing) and the chemical shift imaging started 15 seconds after the start of the injection of the imaging medium. Omniscan™ (GE Healthcare)—enhanced proton imaging was performed to confirm the tumour position and perfusion.

[2] = system: mouse liver; experiment: In vivo 13C-MR spectroscopy with surface coil over the liver in a mouse; set-up: species or system C57Bl/6 mouse; conditions: 175 μl of about 50 mM imaging medium injected over 6 s; liver region, 2.4 T, 10 spectra, repetition time 5 s
Experimental: 175 μl of an imaging medium comprising hyperpolarised sodium ^13C1-α-ketoisocaproate which was prepared as described in Example 1 was injected into a C57Bl/6 mouse over a time period of 6 s. The sodium ^13C1-α-ketoisocaproate concentration in said imaging medium was about 50 mM. A 12 mm surface coil (tuned for carbon) was positioned over the mouse to cover the liver region and signals of ^13C-α-ketoisocaproate and ^13C-leucine were detected by ^13C-MR spectroscopy which was carried out in a 2.4 T Bruker spectrometer to generate a metabolic profile. A total of 10 ^13C-spectra were acquired with a repetition time of 5 s and 30 degree RF pulses. In this Example, the ^13C-leucine signal is approximately 1% of the ^13C-α-ketoisocaproate signal.

[3] = Tolerability in the animal models used; assay type: in vivo; conditions: animal models of the Examples (mouse, rat)
Experimental: In another preferred embodiment, the imaging medium comprising hyperpolarised ^13C-α-ketoisocaproate is administered repeatedly, thus allowing dynamic studies.

[4] = 175 μl of about 50 mM imaging medium, chemical shift imaging started 15 s after start of injection, 2.4 T

| Compound | 13C-leucine distribution [1, 4] | 13C-α-ketoisocaproate signal distribution [1, 4] | ratio image (13C-leucine to 13C-α-ketoisocaproate) ([1]; confirmed by Omniscan-enhanced proton image) | 13C-leucine signal as share of the 13C-α-ketoisocaproate signal [2] | tolerability [3] |
| --- | --- | --- | --- | --- | --- |
| CC(C)CC(=O)[13C](=O)[O-].[Na+] [sodium ^13C1-α-ketoisocaproate] | confined to the tumour area | the highest in the large blood vessels | defines the tumour area | approximately 1% |  |
| ^13C-α-ketoisocaproate [hyperpolarised ^13C-α-ketoisocaproate] |  |  |  |  | well tolerated |
